How the values were obtained:
[1] = target: T1, human V1a receptor (Homo sapiens, UniProt P37288); test: Cellular in vitro assay for determining vasopressin receptor activity, V1a receptor cell line (CHO, aequorin luminescence); format: cell-based; conditions: for IC50: CHO cell line transfected with human V1a receptor, [Arg]-vasopressin at EC50 concentration, read-out: IC50 hV1a; for ratio IC50 hV2/hV1a: selectivity ratio IC50 hV2 / IC50 hV1a
T1 construct: expressed in transfected cells; host or cells: CHO K1 (ATCC), also stably transfected with a modified aequorin
T1 sequence (P37288 whole entry): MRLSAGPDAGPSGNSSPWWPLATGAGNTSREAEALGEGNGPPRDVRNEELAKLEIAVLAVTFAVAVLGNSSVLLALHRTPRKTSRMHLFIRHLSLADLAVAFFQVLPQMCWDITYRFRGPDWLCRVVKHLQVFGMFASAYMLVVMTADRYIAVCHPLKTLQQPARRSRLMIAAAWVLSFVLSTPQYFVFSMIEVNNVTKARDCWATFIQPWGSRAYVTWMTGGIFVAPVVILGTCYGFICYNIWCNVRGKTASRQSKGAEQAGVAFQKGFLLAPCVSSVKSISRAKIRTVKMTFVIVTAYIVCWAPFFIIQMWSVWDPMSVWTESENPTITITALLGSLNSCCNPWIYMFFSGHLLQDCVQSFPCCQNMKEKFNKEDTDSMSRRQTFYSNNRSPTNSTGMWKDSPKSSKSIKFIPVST
In short: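 Antagonism is measured in stable CHO K1 transfectants coexpressing the Gαq-coupled receptor and a calcium-sensitive aequorin photoprotein. Agonist challenge uses [Arg]-vasopressin at EC50 after a 10-minute compound exposure; IC50 values come from the luminescence signal.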

[2] = target: T2, human V2 receptor (Homo sapiens, UniProt P30518); test: Cellular in vitro assay for determining vasopressin receptor activity, V2 receptor cell line (CHO, CRE-luciferase); format: cell-based; conditions: CHO cell line transfected with human V2 receptor; [Arg8]-vasopressin at EC50 concentration, 3 hours; read-out: IC50 hV2
T2 construct: expressed in transfected cells; host or cells: CHO K1 (ATCC) expressing firefly luciferase under a CRE-responsive promoter
T2 sequence (P30518 whole entry): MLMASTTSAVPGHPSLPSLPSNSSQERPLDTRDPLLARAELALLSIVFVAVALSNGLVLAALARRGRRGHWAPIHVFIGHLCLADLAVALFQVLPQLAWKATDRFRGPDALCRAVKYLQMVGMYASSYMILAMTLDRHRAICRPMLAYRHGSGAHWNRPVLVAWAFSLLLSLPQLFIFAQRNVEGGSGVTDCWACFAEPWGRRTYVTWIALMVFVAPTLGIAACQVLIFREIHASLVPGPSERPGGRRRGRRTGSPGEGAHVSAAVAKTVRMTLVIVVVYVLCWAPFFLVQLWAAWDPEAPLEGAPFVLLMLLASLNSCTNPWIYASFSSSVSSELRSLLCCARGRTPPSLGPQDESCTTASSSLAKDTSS

Row | SMILES | IC50 [1] [nM] | ratio IC50 hV2/hV1a [1] | IC50 [2] [nM]
1 | O=C(Nc1nncs1)c1ccccc1-n1cnc(Cn2nc(-c3ccc(Cl)cc3)n(C[C@H](O)C(F)(F)F)c2=O)n1 [Example 251, 2-[3-({3-(4-Chlorophenyl)-5-oxo-4-[(2S)-3,3,3-trifluoro-2-hydroxypropyl]-4,5-dihydro-1H-1,2,4-triazol-1-yl}methyl)-1H-1,2,4-triazol-1-yl]-N-(1,3,4-thiadiazol-2-yl)benzamide] | 8.85 | 9.2 | 81.5
2 | N#CCNC(=O)c1ccccc1-n1cnc(Cn2nc(-c3ccc(Cl)cc3)n(C[C@H](O)C(F)(F)F)c2=O)n1 [Example 252, 2-[3-({3-(4-Chlorophenyl)-5-oxo-4-[(2S)-3,3,3-trifluoro-2-hydroxypropyl]-4,5-dihydro-1H-1,2,4-triazol-1-yl}methyl)-1H-1,2,4-triazol-1-yl]-N-(cyanomethyl)benzamide] | 7.6 | 33.6 | 255
3 | O=C(NCc1cccs1)c1ccccc1-n1cnc(Cn2nc(-c3ccc(Cl)cc3)n(C[C@H](O)C(F)(F)F)c2=O)n1 [Example 253, 2-[3-({3-(4-Chlorophenyl)-5-oxo-4-[(2S)-3,3,3-trifluoro-2-hydroxypropyl]-4,5-dihydro-1H-1,2,4-triazol-1-yl}methyl)-1H-1,2,4-triazol-1-yl]-N-(thiophen-2-ylmethyl)benzamide] | 5.7 | 64.0 | 365
4 | Cc1cc(NC(=O)c2ccccc2-n2cnc(Cn3nc(-c4ccc(Cl)cc4)n(C[C@H](O)C(F)(F)F)c3=O)n2)ccn1 [Example 254, 2-[3-({3-(4-Chlorophenyl)-5-oxo-4-[(2S)-3,3,3-trifluoro-2-hydroxypropyl]-4,5-dihydro-1H-1,2,4-triazol-1-yl}methyl)-1H-1,2,4-triazol-1-yl]-N-(2-methylpyridin-4-yl)benzamide] | 2.25 | 297.8 | 670
5 | O=C(Nc1cncc(F)c1)c1ccccc1-n1cnc(Cn2nc(-c3ccc(Cl)cc3)n(C[C@H](O)C(F)(F)F)c2=O)n1 [Example 255, 2-[3-({3-(4-Chlorophenyl)-5-oxo-4-[(2S)-3,3,3-trifluoro-2-hydroxypropyl]-4,5-dihydro-1H-1,2,4-triazol-1-yl}methyl)-1H-1,2,4-triazol-1-yl]-N-(5-fluoropyridin-3-yl)benzamide] | 1.33 | 169.8 | 225
6 | Cc1cnc(NC(=O)c2ccccc2-n2cnc(Cn3nc(-c4ccc(Cl)cc4)n(C[C@H](O)C(F)(F)F)c3=O)n2)s1 [Example 256, 2-[3-({3-(4-Chlorophenyl)-5-oxo-4-[(2S)-3,3,3-trifluoro-2-hydroxypropyl]-4,5-dihydro-1H-1,2,4-triazol-1-yl}methyl)-1H-1,2,4-triazol-1-yl]-N-(5-methyl-1,3-thiazol-2-yl)benzamide] | 3.6 | 3.6 | 13
7 | O=C(Nc1ccncn1)c1ccccc1-n1cnc(Cn2nc(-c3ccc(Cl)cc3)n(C[C@H](O)C(F)(F)F)c2=O)n1 [Example 257, 2-[3-({3-(4-Chlorophenyl)-5-oxo-4-[(2S)-3,3,3-trifluoro-2-hydroxypropyl]-4,5-dihydro-1H-1,2,4-triazol-1-yl}methyl)-1H-1,2,4-triazol-1-yl]-N-(pyrimidin-4-yl)benzamide] | 6.05 | 24.8 | 150
8 | O=C(Nc1ccccc1Cl)c1ccccc1-n1cnc(Cn2nc(-c3ccc(Cl)cc3)n(C[C@H](O)C(F)(F)F)c2=O)n1 [Example 258, N-(2-Chlorophenyl)-2-[3-({3-(4-chlorophenyl)-5-oxo-4-[(2S)-3,3,3-trifluoro-2-hydroxypropyl]-4,5-dihydro-1H-1,2,4-triazol-1-yl}methyl)-1H-1,2,4-triazol-1-yl]benzamide] | 1.9 | 42.9 | 81.5
9 | Cc1csc(NC(=O)c2ccccc2-n2cnc(Cn3nc(-c4ccc(Cl)cc4)n(C[C@H](O)C(F)(F)F)c3=O)n2)n1 [Example 259, 2-[3-({3-(4-Chlorophenyl)-5-oxo-4-[(2S)-3,3,3-trifluoro-2-hydroxypropyl]-4,5-dihydro-1H-1,2,4-triazol-1-yl}methyl)-1H-1,2,4-triazol-1-yl]-N-(4-methyl-1,3-thiazol-2-yl)benzamide] | 2.5 | 22.0 | 55
10 | CC1=C(C)CN(C(=O)c2ccccc2-n2cnc(Cn3nc(-c4ccc(Cl)cc4)n(C[C@H](O)C(F)(F)F)c3=O)n2)CC1 [Example 260, 5-(4-Chlorophenyl)-2-[(1-{2-[(4,5-dimethyl-3,6-dihydropyridin-1(2H)-yl)carbonyl]phenyl}-1H-1,2,4-triazol-3-yl)methyl]-4-[(2S)-3,3,3-trifluoro-2-hydroxypropyl]-2,4-dihydro-3H-1,2,4-triazol-3-one] | 25.5 | 29.8 | 760
11 | CCN(OC)C(=O)c1ccccc1-n1cnc(Cn2nc(-c3ccc(Cl)cc3)n(C[C@H](O)C(F)(F)F)c2=O)n1 [Example 261, 2-[3-({3-(4-Chlorophenyl)-5-oxo-4-[(2S)-3,3,3-trifluoro-2-hydroxypropyl]-4,5-dihydro-1H-1,2,4-triazol-1-yl}methyl)-1H-1,2,4-triazol-1-yl]-N-ethyl-N-methoxybenzamide] | 1.45 | 310.3 | 450
12 | O=C(c1ccccc1-n1cnc(Cn2nc(-c3ccc(Cl)cc3)n(C[C@H](O)C(F)(F)F)c2=O)n1)N1C[C@@H]2C[C@H]1CO2 [Example 262, 5-(4-Chlorophenyl)-2-[(1-{2-[(1S,4S)-2-oxa-5-azabicyclo[2.2.1]hept-5-ylcarbonyl]phenyl}-1H-1,2,4-triazol-3-yl)methyl]-4-[(2S)-3,3,3-trifluoro-2-hydroxypropyl]-2,4-dihydro-3H-1,2,4-triazol-3-one] | 3.4 | 258.8 | 880
13 | O=CN1CCN(C(=O)c2ccccc2-n2cnc(Cn3nc(-c4ccc(Cl)cc4)n(C[C@H](O)C(F)(F)F)c3=O)n2)CC1 [Example 263, 4-{2-[3-({3-(4-Chlorophenyl)-5-oxo-4-[(2S)-3,3,3-trifluoro-2-hydroxypropyl]-4,5-dihydro-1H-1,2,4-triazol-1-yl}methyl)-1H-1,2,4-triazol-1-yl]benzoyl}piperazine-1-carbaldehyde] | 32.5 | 256.9 | 8350
14 | CN(C)C(=O)c1ccccc1-n1cnc(Cn2nc(-c3ccc(Cl)cc3)n(C[C@H](O)C(F)(F)F)c2=O)n1 [Example 264, 2-[3-({3-(4-Chlorophenyl)-5-oxo-4-[(2S)-3,3,3-trifluoro-2-hydroxypropyl]-4,5-dihydro-1H-1,2,4-triazol-1-yl}methyl)-1H-1,2,4-triazol-1-yl]-N,N-dimethylbenzamide] | 2.45 | 512.2 | 1260
15 | O=C1CCN(C(=O)c2ccccc2-n2cnc(Cn3nc(-c4ccc(Cl)cc4)n(C[C@H](O)C(F)(F)F)c3=O)n2)CCN1 [Example 265, 1-{2-[3-({3-(4-Chlorophenyl)-5-oxo-4-[(2S)-3,3,3-trifluoro-2-hydroxypropyl]-4,5-dihydro-1H-1,2,4-triazol-1-yl}methyl)-1H-1,2,4-triazol-1-yl]benzoyl}-1,4-diazepan-5-one] | 34.5 | 255.1 | 8800
16 | CC1CCN(C(=O)c2ccccc2-n2cnc(Cn3nc(-c4ccc(Cl)cc4)n(C[C@H](O)C(F)(F)F)c3=O)n2)C(C)C1 (stereo partly drawn) [Example 266, 5-(4-Chlorophenyl)-2-[(1-{2-[(2,4-dimethylpiperidin-1-yl)carbonyl]phenyl}-1H-1,2,4-triazol-3-yl)methyl]-4-[(2S)-3,3,3-trifluoro-2-hydroxypropyl]-2,4-dihydro-3H-1,2,4-triazol-3-one] | 3.85 | 223.4 | 860
17 | CC1CN(C(=O)c2ccccc2-n2cnc(Cn3nc(-c4ccc(Cl)cc4)n(C[C@H](O)C(F)(F)F)c3=O)n2)CCN1C (stereo partly drawn) [Example 267] | 33.5 | 119.4 | 4000
18 | O=C(c1ccccc1-n1cnc(Cn2nc(-c3ccc(Cl)cc3)n(C[C@H](O)C(F)(F)F)c2=O)n1)N1CCC(F)(F)C1 [Example 268, 5-(4-Chlorophenyl)-2-[(1-{2-[(3,3-difluoropyrrolidin-1-yl)carbonyl]phenyl}-1H-1,2,4-triazol-3-yl)methyl]-4-[(2S)-3,3,3-trifluoro-2-hydroxypropyl]-2,4-dihydro-3H-1,2,4-triazol-3-one] | 3.65 | 265.8 | 970
19 | COC1CCN(C(=O)c2ccccc2-n2cnc(Cn3nc(-c4ccc(Cl)cc4)n(C[C@H](O)C(F)(F)F)c3=O)n2)CC1 [Example 271, 5-(4-Chlorophenyl)-2-[(1-{2-[(4-methoxypiperidin-1-yl)carbonyl]phenyl}-1H-1,2,4-triazol-3-yl)methyl]-4-[(2S)-3,3,3-trifluoro-2-hydroxypropyl]-2,4-dihydro-3H-1,2,4-triazol-3-one] | 14.5 | 241.4 | 3500
20 | CN(CC(F)(F)F)C(=O)c1ccccc1-n1cnc(Cn2nc(-c3ccc(Cl)cc3)n(C[C@H](O)C(F)(F)F)c2=O)n1 [Example 272, 2-[3-({3-(4-Chlorophenyl)-5-oxo-4-[(2S)-3,3,3-trifluoro-2-hydroxypropyl]-4,5-dihydro-1H-1,2,4-triazol-1-yl}methyl)-1H-1,2,4-triazol-1-yl]-N-methyl-N-(2,2,2-trifluoroethyl)benzamide] | 5.85 | 299.1 | 1750

— patent US11173151B2, “Substituted triazole derivatives and uses thereof” (BAYER AKTIENGESELLSCHAFT, priority 2017, dated 2021)
